Experimental data published in paper PMC11320730, “5-Methoxy-2-aminoindane Reverses Diet-Induced Obesity and Improves Metabolic Parameters in Mice: A Potential New Class of Antiobesity Therapeutics” (ACS Pharmacology & Translational Science, 2024).

Experiments:
[1] = test system: DIO C57BL/6 mice; experiment: Effect of MEAI on obesity: body weight and body composition (EchoMRI) in DIO mice; format: in vivo; conditions: 28 days
Method: (§1) Male C57BL/6 mice were used to establish DIO by feeding them a high-fat diet (HFD; 60% cal/L fat, 20% cal/L protein, and 20% cal/L carbohydrates; Research Diet, D12492) for 18 weeks. After this period, mice were treated with either vehicle (sterile water, N = 8) or MEAI (N = 11) daily for 28 days by gavage at a dose of 40 mg/kg/day. Age-matched control mice (N = 10) on a standard diet (STD; 14% kcal fat, 24% kcal protein, 62% kcal carbohydrates; NIH-31 rodent diet) received vehicle daily. The body weight of all mice was monitored daily, and total body fat and lean mass were determined by EchoMRI-100H (Echo Medical Systems LLC, Houston, Texas, USA). On day 29, at the end of the experimental period, mice were euthanized by a cervical dislocation under anesthesia. The kidneys, brain, liver, and fat pads were removed and weighed, and samples were either snap-frozen or fixed in buffered 4% formalin. Trunk blood was collected to determine the biochemical parameters.

[2] = test system: DIO C57BL/6 mice; experiment: Multiparameter metabolic assessment in DIO mice; format: in vivo
Method: as §1
(§2) The metabolic profiles and food and water intakes of the mice were assessed using the Promethion High-Definition Behavioral Phenotyping System (Sable Instruments, Inc., Las Vegas, Nevada, USA). MetaScreen software version 2.2.18.0 was used for data acquisition and instrument control. Raw data were processed using ExpeData version 1.8.4 with an analysis script detailing all aspects of the data transformation. Mice with free access to food and water, housed at temperatures of (22–23 °C), were subjected to a standard 12 h light/12 h dark cycle, which consisted of a 48 h acclimation period followed by 24 h of sampling after dosing. Respiratory gases were measured using the GA-3 gas analyzer (Sable Systems, Inc., Las Vegas, Nevada, USA) employing a pull-mode negative-pressure system. Airflow was measured and controlled by an FR-8 instrument (Sable Systems, Inc., Las Vegas, Nevada, USA) at a flow rate of 2000 mL/min. Water vapor was continuously measured, and its dilution effect on O2 and CO2 was mathematically compensated. Respiratory exchange rate (RER) was calculated as the ratio of CO2 produced (VCO2) to O2 consumed (VO2) using eq 1): [drawing 1] 1
(§3) Total energy expenditure (TEE) was calculated using VO2 and RER, according to eq 2: [drawing 2] 2
(§4) Fat oxidation (FO) and carbohydrate oxidation (CHO) were calculated using VO2 and VCO2 based on eqs 3 and 4, respectively: [drawing 3] 3 [drawing 4] 4
(§5) Energy balance and energy flux were derived from eqs 5 and 6: [drawing 5] 5 [drawing 6] 6
The thermic effect of food for each animal was calculated based on its individual food intake in a period of 24 h according to the specific percentage of carbohydrates, fats, and proteins in the consumed diet.
The basal energy expenditure was calculated based on the mean energy expenditure (EE) during the lowest EE in a 30 min period, in kilocalories per hour (kcal/h). This calculation represented the animal’s basal metabolic rate.

[3] = test system: vesicular monoamine transporter (VMAT); set-up: method as in PMID 29458138; conditions: cited from earlier work
[4] = test system: C57Bl/6 mice; experiment: Acute effect of MEAI on food and water intake and metabolic parameters (Promethion); format: in vivo; conditions: lean male mice, vs vehicle
Method: (§6) Male 6-week-old C57Bl/6 mice (Harlan, Israel) were maintained in standard conditions under a 12 h light/dark cycle and fed ad libitum. A total of 32 animals were divided into four experimental groups (N = 8 mice per group) receiving single doses of 40, 60, or 100 mg/kg of MEAI or vehicle (sterile water), which was administered via oral gavage 2 h prior to the dark phase. The animals were monitored for 48 h postdose for drug tolerability, food and water intakes, and activity and metabolic parameters. At the end of the experiment, the animals were euthanized, and tissues (brain, liver, fat, and kidney) and blood were collected and stored in a frozen state for future analyses.
as §2, §3, §4, §5

[5] = test system: C57Bl/6 mice; experiment: Acute effect of MEAI on wheel running and locomotor activity; format: in vivo; conditions: lean male mice, vs vehicle
Method: as §6
The activity energy expenditure was calculated based on eq 7: [drawing 7] 7
The assessment of wheel running and locomotor activity was performed by using the Promethion High-Definition Behavioral Phenotyping System (Sable Instruments, Inc., Las Vegas, Nevada, USA). Wheel revolutions were measured with a monitor that recorded voluntary wheel running activity, and locomotor activity was quantified using disruptions of infrared XYZ beam arrays with a beam spacing of 0.25 cm. Pedestrian locomotion represented the sum of all directed ambulatory locomotion within the beam break system, using a speed cutoff of 1 cm/s. Total distance represented the sum of all distances traveled within the beam break system, not including any distance run on the wheel in meters (m); this included fine movements (such as grooming and scratching).

[6] = test system: C57Bl/6 mice; experiment: Sucrose preference test; format: in vivo; conditions: 40 mg/kg, single dose
Method: Thirteen-week-old male C57BL/6 mice, maintained on a STD and housed individually, were habituated to two water bottles in their home cage for 48 h prior to the test. Baseline intake was measured by weighing the bottles. On the test day (day 1), 2 h before the onset of the dark phase, fresh water and a 1.5% sucrose solution were added to the bottles and mice were subsequently treated orally with MEAI (40 mg/kg, N = 8) or sterile water (N = 8). The mice were allowed to freely drink from either bottle for 24 h, after which the bottles were weighed to measure consumption. The study was repeated for an additional day (day 2), with the bottles switched in position (in the cage) to account for side preference. The sucrose and water intake over the 2 days were averaged, and the sucrose preference index was calculated as the average consumed sucrose solution divided by the average volume of total consumed liquid (average water plus average sucrose solution).

[7] = DIO mice, 40 mg/kg/day, vs HFD vehicle
[8] = single oral dose 40, 60 or 100 mg/kg
[9] = single oral dose, all doses (40, 60, 100 mg/kg)

In the case of `COc1ccc2c(c1)CC(N)C2.Cl` (centres unmarked) [MEAI, 2,3-Dihydro-5-methoxy-1H-inden-2-amine hydrochloride], the “decrease in total body weight” value ([1]; DIO mice, 40 mg/kg/day by gavage, compared to obese vehicle-treated group) is reported as about 15%, the “adiposity associated with obesity” value ([1]; DIO mice, 40 mg/kg/day) is reported as “reduced” and the “lean body mass ratio” value ([1]; DIO mice, 40 mg/kg/day) is reported as “maintaining”. The net lean mass ([1]; DIO mice, 40 mg/kg/day) was “maintaining”, the overall fat mass ([1]; DIO mice, 40 mg/kg/day) was “reducing” and the body weight ([1]; HFD-fed (DIO) mice, 40 mg/kg/day by gavage) was “significantly reduced”. The basal energy expenditure ([2]; DIO mice, 40 mg/kg/day) was “significantly boosted”, the “cumulative TEE” value ([2]; DIO mice, 40 mg/kg/day) was “increases” and the water consumption ([2]; DIO mice, 40 mg/kg/day) was “did not exert any significant influence”. The “total food intake over 24 h” value ([2]; DIO mice, 40 mg/kg/day, across all groups) was “similar”, the overall energy balance ([2]; DIO mice, 40 mg/kg/day, across the groups) was “no significant changes” and the “thermodynamic (thermic) effect of food” value ([2]; DIO mice, 40 mg/kg/day, between groups) was “remained unchanged”. The RER ([2]; DIO mice, 40 mg/kg/day, in comparison to STD vehicle group) was “slightly decreased”, the “differences in TEE by ANCOVA using lean mass as covariant” value ([2]; DIO mice, 40 mg/kg/day, p = 0.0097 vs HFD vehicle) was “treatment-dependent” and the average energy expenditure ([2]; DIO mice, 40 mg/kg/day, vs HFD and STD vehicle, light and dark phases) was “significant increase”. The CHO levels [2, 7] was “no direct effect of the drug itself observed”, the carbon dioxide production [2, 7] was “slightly increased” and the oxygen consumption [2, 7] was “slightly increased”. For the same compound, the “overall rate of FO” value ([2]; DIO mice, 40 mg/kg/day, vs HFD- and STD-vehicle groups) was “increase”, the energy flux ([2]; DIO mice, 40 mg/kg/day, vs vehicle groups) was “significant increase” and the “meal size (food intake per meal)” value ([2]; HFD-fed mice regardless of MEAI treatment (40 mg/kg/day), vs STD) was “significant reduction”. For the same compound, the binding inhibition [3] was “unaffected”, the “hourly average energy expenditure (TEE/h)” value ([4]; single oral dose 40, 60 or 100 mg/kg, across 24 h) was “significant dose-dependent increase” and the “feeding patterns (food intake)” value ([4]; single oral dose 40, 60 or 100 mg/kg, dark and light phases) was “did not reach statistical significance”. For the same compound, the water consumption [4, 8] was “no notable changes”, the “respiratory exchange ratio (RER)” value ([4]; single oral dose 60 and 100 mg/kg, light phase) was “markedly increased” and the “carbohydrate oxidation (CHO) rate” value ([4]; single oral dose, higher doses) was “elevations”. The “fat oxidation (FO) rate” value ([4]; single oral dose, higher doses) was “elevations”, the “total daily TEE” value ([4]; single oral dose, particularly at 60 mg/kg) was “significant elevation” and the “carbon dioxide production (VCO2)” value ([4]; single oral dose) was “increases”. The energy balance ([4]; single oral dose) was “did not lead to immediate changes”, the “oxygen consumption (VO2)” value ([4]; single oral dose) was “increases” and the pedestrian speed ([5]; single oral dose 60 mg/kg) was “significant increase”. The “total number of beam breaks (ambulation and fine movements)” value [5, 8] was “minor alterations”, the “directed voluntary activity (pedestrian locomotion)” value ([5]; single oral dose, 40 mg/kg and above) was “significant and dose-dependent increase” and the “average distance traveled within the cage” value [5, 9] was “significant elevations”. For the same compound, the “total distance traveled within the cage” value [5, 9] was “significant elevations”, the “sum of voluntary wheel running activity” value ([5]; single oral dose, any dose tested) was “did not significantly affect” and the activity-specific energy expenditure ([5]; single oral dose) was “modest insignificant rise”. For the same compound, the “preference for sucrose solution” value ([6]; 1.5% sucrose, most evident during initial 24 h, vs vehicle) was “significantly reduced” and the water intake levels ([6]; sucrose preference test) was “without any accompanying decrease”.
